Measured values: patent US6613747B2, “6-O-carbamoyl ketolide antibacterials” (Ortho-McNeil Pharmaceutical, Inc., priority 2000, dated 2003)
≈ marks a conversion by molar mass, not a printed value.

What was measured:
Assay in all cases: MIC, microdilution broth method (NCCLS)
Type in all cases: cell-based
E. faecalis ATCC29212 = details: C: E. faecalis ATCC29212, 35° C., 16-20 hours
In short: (§1)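 Following the NCCLS microdilution standard, organisms from actively growing broth cultures are added at roughly 5×10^4 CFU/well to two-fold drug series in cation-adjusted Mueller-Hinton broth. Trays incubate 16-20 hours at 35° C. before reading.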

S. pneumoniae ATCC49619 = details: D: S. pneumoniae ATCC49619, 35° C., 16-20 hours
In short: as §1

E. coli OC2605 = details: A: E. coli OC2605, 35° C., 16-20 hours
In short: as §1

S. aureus ATCC29213 = details: B: S. aureus ATCC29213, 35° C., 16-20 hours
In short: as §1

H. influenzae ATCC49247 = details: E: H. influenzae ATCC49247, 35° C., 16-20 hours
In short: as §1

| SMILES | MIC (E. faecalis ATCC29212) | MIC (S. pneumoniae ATCC49619) | MIC (E. coli OC2605) | MIC (S. aureus ATCC29213) | MIC (H. influenzae ATCC49247) |
| --- | --- | --- | --- | --- | --- |
| CC[C@H]1OC(=O)[C@H](C)C(=O)[C@H](C)[C@@H](O[C@@H]2O[C@H](C)C[C@H](N(C)C)[C@H]2O)[C@](C)(OC(=O)NC/C=C/c2ccc(-n3cccn3)c(OC)c2)C[C@@H](C)C(=O)[C@H](C)[C@H]2NC(=O)O[C@@]21C [Compound 84] | 0.12 µg/mL (≈ 0.141 µM) | 0.06 µg/mL (≈ 0.0703 µM) | >16 µg/mL | 0.25 µg/mL (≈ 0.293 µM) | 4 µg/mL (≈ 4.68 µM) |
| CC[C@H]1OC(=O)[C@H](C)C(=O)[C@H](C)[C@@H](O[C@@H]2O[C@H](C)C[C@H](N(C)C)[C@H]2O)[C@](C)(OC(=O)NCc2ccc(-c3nccc(C)n3)cc2)C[C@@H](C)C(=O)[C@H](C)[C@H]2NC(=O)O[C@@]21C [Compound 69] | 0.12 µg/mL (≈ 0.146 µM) | 0.03 µg/mL (≈ 0.0364 µM) | >16 µg/mL | 0.5 µg/mL (≈ 0.607 µM) | 8 µg/mL (≈ 9.71 µM) |
| CC[C@H]1OC(=O)[C@H](C)C(=O)[C@H](C)[C@@H](O[C@@H]2O[C@H](C)C[C@H](N(C)C)[C@H]2O)[C@](C)(OC(=O)NC/C=C/c2ccc(-c3nccc(OC)n3)cc2)C[C@@H](C)C(=O)[C@H](C)[C@H]2NC(=O)O[C@@]21C [Compound 71] | 0.12 µg/mL (≈ 0.139 µM) | 0.06 µg/mL (≈ 0.0693 µM) | >16 µg/mL | 0.25 µg/mL (≈ 0.289 µM) | 4 µg/mL (≈ 4.62 µM) |
| CC[C@H]1OC(=O)[C@H](C)C(=O)[C@H](C)[C@@H](O[C@@H]2O[C@H](C)C[C@H](N(C)C)[C@H]2O)[C@](C)(OC(=O)NC/C=C/c2ccc(-c3ncccn3)cc2)C[C@@H](C)C(=NO)[C@H](C)[C@H]2NC(=O)O[C@@]21C [Compound 133] | 0.25 µg/mL (≈ 0.294 µM) | 0.03 µg/mL (≈ 0.0353 µM) | 16 µg/mL (≈ 18.8 µM) | 0.25 µg/mL (≈ 0.294 µM) | 2 µg/mL (≈ 2.35 µM) |
| CC[C@H]1OC(=O)[C@H](C)C(=O)[C@H](C)[C@@H](O[C@@H]2O[C@H](C)C[C@H](N(C)C)[C@H]2O)[C@](C)(OC(=O)NCc2ccc(-c3ccccn3)s2)C[C@@H](C)C(=O)[C@H](C)[C@H]2NC(=O)O[C@@]21C [Compound 56] | 0.06 µg/mL (≈ 0.0736 µM) | ≦0.015 μg/mL | 8 µg/mL (≈ 9.82 µM) | 0.25 µg/mL (≈ 0.307 µM) | 2 µg/mL (≈ 2.45 µM) |
| CC[C@H]1OC(=O)[C@H](C)C(=O)[C@H](C)[C@@H](O[C@@H]2O[C@H](C)C[C@H](N(C)C)[C@H]2O)[C@](C)(OC(=O)NC/C=C/c2ccc(-c3ccncn3)cc2)C[C@@H](C)C(=O)[C@H](C)[C@H]2NC(=O)O[C@@]21C [Compound 78] | 0.06 µg/mL (≈ 0.0718 µM) | 0.03 µg/mL (≈ 0.0359 µM) | >16 µg/mL | 0.25 µg/mL (≈ 0.299 µM) | 4 µg/mL (≈ 4.78 µM) |
| CC[C@H]1OC(=O)[C@H](C)C(=O)[C@H](C)[C@@H](O[C@@H]2O[C@H](C)C[C@H](N(C)C)[C@H]2O)[C@](C)(OC(=O)NCCN(C)Cc2cccnc2)C[C@@H](C)C(=O)[C@H](C)[C@H]2NC(=O)O[C@@]21C [Compound 118] | 1 µg/mL (≈ 1.27 µM) | 0.12 µg/mL (≈ 0.152 µM) | >16 µg/mL | 8 µg/mL (≈ 10.1 µM) | 16 µg/mL (≈ 20.3 µM) |
| CCC1OC(=O)C(C)(F)C(=O)C(C)C(OC2OC(C)CC(N(C)C)C2O)C(C)(OC(=O)NCC=Cc2ccccc2)CC(C)C(=NO)C(C)C2NC(=O)OC12C (stereo not shown) [Compound 129] | 0.12 µg/mL (≈ 0.152 µM) | 0.03 µg/mL (≈ 0.0379 µM) | 8 µg/mL (≈ 10.1 µM) | 0.25 µg/mL (≈ 0.316 µM) | 1 µg/mL (≈ 1.26 µM) |
| CC[C@H]1OC(=O)[C@H](C)C(=O)[C@H](C)[C@@H](O[C@@H]2O[C@H](C)C[C@H](N(C)C)[C@H]2O)[C@](C)(OC(=O)NCc2ccc(-c3cncnc3)cc2)C[C@@H](C)C(=O)[C@H](C)[C@H]2NC(=O)O[C@@]21C [Compound 28] | 0.06 µg/mL (≈ 0.0741 µM) | 0.03 µg/mL (≈ 0.037 µM) | 16 µg/mL (≈ 19.8 µM) | 0.25 µg/mL (≈ 0.309 µM) | 4 µg/mL (≈ 4.94 µM) |
| CC[C@H]1OC(=O)[C@H](C)C(=O)[C@H](C)[C@@H](O[C@@H]2O[C@H](C)C[C@H](N(C)C)[C@H]2O)[C@](C)(OC(=O)NCCNC(=O)c2cnc3ccccc3c2)C[C@@H](C)C(=O)[C@H](C)[C@H]2NC(=O)O[C@@]21C [Compound 113] | 1 µg/mL (≈ 1.19 µM) | 0.06 µg/mL (≈ 0.0714 µM) | >16 µg/mL | 4 µg/mL (≈ 4.76 µM) | 8 µg/mL (≈ 9.52 µM) |
| CC[C@H]1OC(=O)[C@H](C)C(=O)[C@H](C)[C@@H](O[C@@H]2O[C@H](C)C[C@H](N(C)C)[C@H]2O)[C@](C)(OC(=O)NCCN)C[C@@H](C)C(=O)[C@H](C)[C@H]2NC(=O)O[C@@]21C [Compound 110] | 8 µg/mL (≈ 11.7 µM) | 1 µg/mL (≈ 1.46 µM) | >16 µg/mL | 16 µg/mL (≈ 23.4 µM) | 16 µg/mL (≈ 23.4 µM) |
| CC[C@H]1OC(=O)[C@H](C)C(=O)[C@H](C)[C@@H](O[C@@H]2O[C@H](C)C[C@H](N(C)C)[C@H]2O)[C@](C)(OC(=O)NCCCc2ccncc2)C[C@@H](C)C(=O)[C@H](C)[C@H]2NC(=O)O[C@@]21C [Compound 24] | 0.12 µg/mL (≈ 0.158 µM) | 0.06 µg/mL (≈ 0.0789 µM) | 16 µg/mL (≈ 21 µM) | 1 µg/mL (≈ 1.31 µM) | 2 µg/mL (≈ 2.63 µM) |
| CCC1OC(=O)C(C)(O)C(=O)C(C)C(OC2OC(C)CC(N(C)C)C2O)C(C)(OC(=O)NCC=Cc2ccc(-c3cnccn3)cc2)CC(C)C(=O)C(C)C2NC(=O)OC12C (stereo not shown) [Compound 98] | 0.25 µg/mL (≈ 0.293 µM) | 0.03 µg/mL (≈ 0.0352 µM) | >16 µg/mL | 0.5 µg/mL (≈ 0.587 µM) | 4 µg/mL (≈ 4.69 µM) |
| CC[C@H]1OC(=O)[C@H](C)C(=O)[C@H](C)[C@@H](O[C@@H]2O[C@H](C)C[C@H](N(C)C)[C@H]2O)[C@](C)(OC(=O)N2CCC(c3ccccc3)CC2)C[C@@H](C)C(=O)[C@H](C)[C@H]2NC(=O)O[C@@]21C [Compound 137] | 1 µg/mL (≈ 1.27 µM) | 0.25 µg/mL (≈ 0.318 µM) | >16 µg/mL | 4 µg/mL (≈ 5.09 µM) | 8 µg/mL (≈ 10.2 µM) |
| CC[C@H]1OC(=O)[C@H](C)C(=O)[C@H](C)[C@@H](O[C@@H]2O[C@H](C)C[C@H](N(C)C)[C@H]2O)[C@](C)(OC(=O)NC/C=C/c2cn(-c3ncccn3)cn2)C[C@@H](C)C(=O)[C@H](C)[C@H]2NC(=O)O[C@@]21C [Compound 92] | 0.12 µg/mL (≈ 0.145 µM) | 0.03 µg/mL (≈ 0.0363 µM) | 16 µg/mL (≈ 19.4 µM) | 0.25 µg/mL (≈ 0.303 µM) | 2 µg/mL (≈ 2.42 µM) |
| CC[C@H]1OC(=O)[C@H](C)C(=O)[C@H](C)[C@@H](O[C@@H]2O[C@H](C)C[C@H](N(C)C)[C@H]2O)[C@](C)(OC(=O)NCCCc2ccc(N(C)C)cc2)C[C@@H](C)C(=O)[C@H](C)[C@H]2NC(=O)O[C@@]21C [Compound 14] | 0.5 µg/mL (≈ 0.623 µM) | 0.12 µg/mL (≈ 0.149 µM) | >16 µg/mL | 8 µg/mL (≈ 9.96 µM) | >16 µg/mL |
| CCC1OC(=O)C(C)(F)C(=O)C(C)C(OC2OC(C)CC(N(C)C)C2O)C(C)(OC(=O)NCCOCc2ccc(-c3ncccn3)cc2)CC(C)C(=O)C(C)C2NC(=O)OC12C (stereo not shown) [Compound 108] | 0.25 µg/mL (≈ 0.287 µM) | 0.06 µg/mL (≈ 0.0688 µM) | >16 µg/mL | 0.5 µg/mL (≈ 0.573 µM) | 4 µg/mL (≈ 4.59 µM) |
| CC[C@H]1OC(=O)[C@H](C)C(=O)[C@H](C)[C@@H](O[C@@H]2O[C@H](C)C[C@H](N(C)C)[C@H]2O)[C@](C)(OC(=O)NCCNCc2cnc3ccccc3c2)C[C@@H](C)C(=O)[C@H](C)[C@H]2NC(=O)O[C@@]21C [Compound 114] | 0.25 µg/mL (≈ 0.303 µM) | 0.06 µg/mL (≈ 0.0726 µM) | >16 µg/mL | 2 µg/mL (≈ 2.42 µM) | 4 µg/mL (≈ 4.84 µM) |
| CC[C@H]1OC(=O)[C@H](C)C(=O)[C@H](C)[C@@H](O[C@@H]2O[C@H](C)C[C@H](N(C)C)[C@H]2O)[C@](C)(OC(=O)NCc2ccc(-n3cncn3)cc2)C[C@@H](C)C(=O)[C@H](C)[C@H]2NC(=O)O[C@@]21C [Compound 10] | 0.25 µg/mL (≈ 0.313 µM) | 0.03 µg/mL (≈ 0.0375 µM) | 16 µg/mL (≈ 20 µM) | 1 µg/mL (≈ 1.25 µM) | 4 µg/mL (≈ 5.01 µM) |
| CC[C@H]1OC(=O)[C@H](C)C(=O)[C@H](C)[C@@H](O[C@@H]2O[C@H](C)C[C@H](N(C)C)[C@H]2O)[C@](C)(OC(=O)NCCN2C(=O)c3ccccc3C2=O)C[C@@H](C)C(=O)[C@H](C)[C@H]2NC(=O)O[C@@]21C [Compound 109] | 2 µg/mL (≈ 2.45 µM) | 0.25 µg/mL (≈ 0.307 µM) | >16 µg/mL | 8 µg/mL (≈ 9.82 µM) | 16 µg/mL (≈ 19.6 µM) |
